# In US20220054575A1, “PROTECTION AGAINST CORONAVIRUS INFECTION BY EXTRACTS AND EXTRACT COMPONENTS” (Natreon, Inc., priority 2020, published 2022):
# Test: Solubility (description)
# Format: physicochemical
# Details: for solubility in organic solvent: DMSO / DMF
Compound,solubility in organic solvent,solubility in water
"O=c1oc2cc(O)ccc2c2ccc(O)cc12 [3,8-dihydroxy-6H-benzo[c]chromen-6-one]",soluble in DMSO,largely insoluble in water
O=c1oc2cc(O)ccc2c2ccccc12 [3-hydroxy-6H-benzo[c]chromen-6-one],soluble in DMSO and DMF,largely insoluble in water
